Earlier results in patent US6989159B2 (JDS Pharmaceuticals, LLC, priority 2000, dated 2006).

O=C([O-])[O-].[Li+].[Li+] [Lithium carbonate]
eliminated through urine (in vivo): More than 95%
reabsorbed in the proximal convoluted tubule (in vivo): 80%
time to complete absorption in the gastrointestinal tract (in vivo): about 8 hours
concentration in the liquor compared with the plasmatic one (steady state): below 50%
plasma half-life at the steady state (steady state): 20 to 24 h
